The record followed here is patent publication US12606561B2, “Substituted pyrazolo[1,5-a][1,3,5]triazines as CDK inhibitors” (QURIENT CO., LTD., priority 2018, dated 2026).

One assay deals with MV4-11. In words: Cellular MV4-11 viability assay (CellTiter-Glo, 72 hours). In kind it is cell-based. As to conditions: Homo sapiens; MV4-11 cells. A digest of the protocol: (§1)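 Cells grown in RPMI-1640 with 10% FBS were seeded at 1×10^4/well (MV4-11), 5×10^3 (OVCAR-3) or 1×10^3 (A2780), then dosed 24 h later with compound at 0.0015 uM to 10 uM, DMSO <0.1%. Viability was read by CellTiter-Glo luminescence after 72 h at 37° C, in duplicate.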

The test system of another assay is OVCAR-3. In words: OVCAR-3 viability assay (CellTiter-Glo, 72 hours). In kind it is cell-based. Particulars: Homo sapiens; OVCAR-3 cells. The gist of the method: as §1
The subject of another assay is H460. Nature of the assay: Cellular H460 viability assay (CellTiter-Glo, 72 hours). In kind it is cell-based. As to conditions: Homo sapiens, NCI-H460; H460 cells.
Another assay has as its target T1, CDK5/p25 (Homo sapiens, UniProt Q00535).
T1 construct: purchased Invitrogen PR8543B
In words: Enzymatic assay for CDK5 (LANCE Ultra kinase assay, FRET based). In kind it is biochemical. Particulars: ATP at Km. The gist of the method: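 Inhibition was measured at ATP Km with 68 nM ULight-MBP peptide and CDK2/Cyclin A ([…]) or CDK5/p25 ([…]), using 8-dose 4-fold compound dilutions from DMSO. Kinase reaction ran 60 min at 23° C, then Eu anti-phospho-MBP plus EDTA were added for another 60 min before the fluorescence read.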

A value given as a limit tells only on which side of the number the result lay.

T1 sequence (Q00535 whole entry): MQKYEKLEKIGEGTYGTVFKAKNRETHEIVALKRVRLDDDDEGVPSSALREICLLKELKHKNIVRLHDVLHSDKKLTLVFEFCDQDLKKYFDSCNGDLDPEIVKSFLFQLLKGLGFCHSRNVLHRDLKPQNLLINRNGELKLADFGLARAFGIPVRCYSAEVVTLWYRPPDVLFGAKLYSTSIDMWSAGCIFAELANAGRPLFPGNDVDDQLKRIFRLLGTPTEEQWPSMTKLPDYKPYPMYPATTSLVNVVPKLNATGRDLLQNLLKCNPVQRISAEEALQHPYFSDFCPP
T1 sequence (Q15078 99-307 partner limits assumed): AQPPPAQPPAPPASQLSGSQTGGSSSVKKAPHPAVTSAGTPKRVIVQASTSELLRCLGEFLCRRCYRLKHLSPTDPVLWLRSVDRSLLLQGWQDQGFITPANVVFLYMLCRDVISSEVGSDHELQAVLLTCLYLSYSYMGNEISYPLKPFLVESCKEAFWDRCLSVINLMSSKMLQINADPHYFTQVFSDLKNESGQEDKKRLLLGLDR

Take `CC(C)c1cnn2c(NCc3ccccc3-c3nccc4cc(NC(=O)/C=C/CN(C)C)ccc34)nc(N3CCC(N)CC3)nc12` [Compound 11]: the IC50 – broadly, the point on the concentration scale where inhibition reaches its midpoint – was less than 1000 nM in the assay on MV4-11, less than 1000 nM with OVCAR-3, less than 1000 nM in the assay with H460 and more than 1000 nM on CDK5/p25.
